Data as given in patent US8277815B2, “Pharmaceutical composition comprising an antigen” (Intercell AG, priority 1999, dated 2012).

Assays:
[1] = tested on: tick-born encephalitis (TBE) virus; conditions: in vivo; cited from earlier work
antigen specific T cells = test: IFN-γ-ELISPOT of lymph node lymphocytes 10 days after subcutaneous vaccination; type: in vivo, C57BL/6 mice; conditions: lymph node lymphocytes of TRP-2 vaccinated mice; negative control with the same MHC restriction
Procedure: Experimental Groups (5 Mice Each) • 1) TRP-2 peptide • 2) TRP-2 peptide+HGH • 3) TRP-2 peptide+pR 60 • 4) TRP-2 peptide+pR 60+HGH
On day 0 mice were injected subcutaneously with a total volume of 100 μl containing the above mentioned compounds. Animals were sacrificed 10 days after injection of the vaccine and mesenteric and inguinal lymph nodes harvested. Results are illustrated in FIG. 1.
Lymphocytes were prepared from lymph nodes as follows: cells were passed through a 70 μm sieve and washed twice with DMEM medium (GIBCO BRL) containing 2.5% fetal calf serum (FCS; SIGMA chemicals). Cells were adjusted to 10^7 cells/ml in complete medium (DMEM+10% FCS). IFN-γ-ELISPOT assays were carried out in triplicate as described (Miyahira et al., 1995). This method is a widely used procedure allowing the quantification of antigen-specific T cells. Lymphocytes were restimulated with TRP-2 peptide or with an ovalbumin-derived peptide (SIINFEKL) with the same MHC restriction serving as negative control.
Spots representing single T cells specific for the peptide used for re-stimulation (and immunization) were counted. The number of background spots observed with cells incubated without peptide(s) was subtracted from all samples.

Substance	vaccine efficacy / protection of animals [1]	spots on restimulation with the ovalbumin-derived control peptide (IFN-γ-ELISPOT) (antigen specific T cells)
HGH: Human growth hormone, pituitary-derived factor; SAIZEN, Laboratoires Serono used in Example 1	potentiated vaccine efficacy and led to the protection of animals after only one injection of the vaccine	–
SIINFEKL [ovalbumine derived peptide]	–	no spots detected
